Measurements reported in ChEMBL document CHEMBL6087397, “H2S-releasing oridonin derivatives with improved antitumor activity by inhibiting the PI3K/AKT pathway” (Bioorg Med Chem, 2024).
Activity calls are given as the source filed them. No cut-off for these calls is given here.

Legend:
MCF7 [1] = test: Induction of mitochondrial apoptosis pathway in human MCF7 cells assessed as downregulation of pro-caspase-9 expression at 1.25 to 5.0 uM incubated for 48 hrs by Western blotting analysis; assay type: functional, cell-based; details: dose 1.25-5 µM
A549 = test: Antiproliferative activity against human A549 cells assessed as inhibition of cell proliferation incubated for 48 hrs by CCK-8 assay; assay type: functional, cell-based; details: A549, 48 h
MIA PaCa-2 [2] = test: Antiproliferative activity against human MIA PaCa-2 cells assessed as inhibition of cell proliferation incubated for 48 hrs by CCK-8 assay; assay type: functional, cell-based; details: MIA PaCa-2, 48 h
MCF7 [3] = test: Induction of cell cycle arrest in human MCF7 cells assessed as increase in accumulation of cells at G2/M phase at 5 uM incubated for 48 hrs by PI staining based flow cytometric analysis (reference value: 6.7%); assay type: functional
MIA PaCa-2 [4] = test: Induction of apoptosis in human MIA PaCa-2 cells assessed as upregulation of cleaved PARP expression at 1.25 to 5.0 uM incubated for 48 hrs by Western blotting analysis; assay type: functional, cell-based; details: dose 1.25-5 µM
MIA PaCa-2 [5] = test: Inhibition of cell migration in human MIA PaCa-2 cells assessed as wider scratch areas at 0.5 to 1.0 uM incubated for 48 hrs by scratch assay; assay type: functional, cell-based; details: dose 0.5-1 µM
[6] = Toxicity in female BALB/c mouse xenografted with mouse 4T1 cells assessed as morphological change in heart at 10 mg/kg, ip administered every 2 days by H and E staining based analysis; assay type: organism-based; details: in vivo, 48 h
HepG2 = test: Antiproliferative activity against human HepG2 cells assessed as inhibition of cell proliferation incubated for 48 hrs by CCK-8 assay; assay type: functional, cell-based; details: HepG2, 48 h
MIA PaCa-2 [7] = test: Induction of apoptosis in human MIA PaCa-2 cells assessed as upregulation of Cyt-C expression at 1.25 to 5.0 uM incubated for 48 hrs by Western blotting analysis; assay type: functional, cell-based; details: dose 1.25-5 µM
4T1 = test: Antitumor activity against mouse 4T1 cells xenografted in female BALB/c mouse assessed as reduction in tumor volume at 10 mg/kg, ip administered every 2 days; assay type: functional, organism-based
[8] = Toxicity in female BALB/c mouse xenografted with mouse 4T1 cells assessed as morphological change in kidney at 10 mg/kg, ip administered every 2 days by H and E staining based analysis; assay type: organism-based; details: in vivo, 48 h
[9] = Toxicity in female BALB/c mouse xenografted with mouse 4T1 cells assessed as morphological change in spleen at 10 mg/kg, ip administered every 2 days by H and E staining based analysis; assay type: organism-based; details: in vivo, 48 h
PANC-1 = test: Antiproliferative activity against human PANC-1 cells assessed as inhibition of cell proliferation incubated for 48 hrs by CCK-8 assay; assay type: functional, cell-based; details: PANC-1, 48 h
MIA PaCa-2 [10] = test: Inhibition of PI3K expression in human MIA PaCa-2 cells at 1.25 to 5.0 uM incubated for 48 hrs by Western blotting analysis; assay type: functional, cell-based; details: dose 1.25-5 µM

IC50 (A549): 17.8 µM | IC50 (MIA PaCa-2 [2]): 2140 nM | IC50 (HepG2): 7.48 µM | IC50 (PANC-1): 17.7 µM
SMILES: C=C1C(=O)[C@]23[C@H](OC(=O)c4ccc(N=C=S)cc4)[C@H]1CC[C@H]2[C@@]12CO[C@]3(O)[C@@H](O)[C@@H]1C(C)(C)CC[C@@H]2O
Activity (MCF7 [1]): Active | Activity (MCF7 [3]): 11.5% | Activity (MIA PaCa-2 [4]): Active | inhibition (MIA PaCa-2 [5]): Active | Activity [6]: Non-toxic | Activity (MIA PaCa-2 [7]): Active | Activity (4T1): Active | Activity [8]: Non-toxic | Activity [9]: Non-toxic | inhibition (MIA PaCa-2 [10]): Active
